Test results as given in publication PMC12676205, “New Se‐Compounds With Antileishmanial, Antitumor, and Carbonic Anhydrase Inhibitory Properties” (Archiv Der Pharmazie, 2025).
Like-named read-outs stand apart in the source and are kept apart here.

Legend:
[1] = system: NCI‐60 human cancer cell lines; set-up: method as in PMID 20442306; conditions: NCI-60 panel; read-out: mean GI50 in the same panel of cell lines; cited from earlier work
[2] = system: L. infantum promastigotes; set-up: method as in PMID 37570815, PMID 36364304; conditions: reference drugs; cited from earlier work
L. major promastigotes [3] = system: L. major promastigotes; set-up: method as in PMID 37570815, PMID 36364304; conditions: reference drugs; cited from earlier work
THP‐1 cells = system: THP‐1 cells; set-up: method as in PMID 37570815, PMID 36364304; conditions: reference drugs; cited from earlier work
hCA IX = molecular target: T1, hCA IX (Homo sapiens, UniProt Q16790); assay: biochemical; conditions: stopped flow technique, mean from three assays
T1 construct: made in house
Protocol: (§7) An Applied Photophysics stopped‐flow instrument was used to assay the CA‐catalyzed CO2 hydration activity [52]. […] The uncatalyzed rates were determined in the same manner and subtracted from the total observed rates. Stock solutions of the inhibitor (0.1 mM) were prepared in distilled–deionized water, and dilutions up to 0.01 nM were done thereafter with the assay buffer. Inhibitor and enzyme solutions were preincubated together for 15 min at room temperature before the assay, to allow for the formation of the E–I complex. The inhibition constants were obtained by Nonlinear least‐squares methods using PRISM 3 and the Cheng‐Prusoff equation as reported earlier and represent the mean from at least three different determinations. All CA isoforms were recombinant proteins obtained in‐house, as reported earlier [54, 55, 56].

hCA I = molecular target: T2, hCA I (Homo sapiens, UniProt P00915); assay: hCA I inhibition, stopped-flow CO2 hydration assay; assay type: biochemical; conditions: stopped flow technique, mean from three assays
T2 construct: made in house
T2 sequence (P00915 whole entry): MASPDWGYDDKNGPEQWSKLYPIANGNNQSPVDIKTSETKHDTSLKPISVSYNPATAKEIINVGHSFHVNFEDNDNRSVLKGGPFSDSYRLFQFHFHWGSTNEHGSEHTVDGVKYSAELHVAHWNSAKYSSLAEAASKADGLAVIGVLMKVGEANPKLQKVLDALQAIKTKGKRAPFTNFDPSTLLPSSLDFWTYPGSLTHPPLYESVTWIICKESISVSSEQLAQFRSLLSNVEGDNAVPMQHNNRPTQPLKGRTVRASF
Protocol: as §7

OVCAR‐5 = assay: NCI-60 one-dose screen, OVCAR-5; assay type: cell-based, human; conditions: 10 µM, 48 h
Protocol: (§1) To explore the potential antiproliferative properties of the newly synthesized derivatives, they were submitted to the National Cancer Institute's (NCI) Developmental Therapeutics Program (DTP) for screening at 10 μM in a panel of approximately 60 human cancer cell lines from different cancer types. The results are reported as the growth percentage (GP), which is the growth of the treated cells with each compound for 48 h compared to the untreated controls (Figure 2). […] The initial screening results are summarized in Figure 2, and the mean GP values of each subpanel are depicted in Figure 3. The full reports are compiled in the Supplementary Section.
(§2) All the reported selenoesters (1–6) were submitted to the DTP of NCI. First, they were screened at a single dose (10^−5 M) against a panel of 60 cancer cell lines derived from different tumor types following the methodology available (https://dtp.cancer.gov/discovery_development/nci-60/methodology.htm). As all the compounds satisfied the threshold inhibition criteria established, they were further assessed at five concentrations (0.01, 0.1, 1, 10, and 100 µM) against the same cell panel to obtain their corresponding dose–response curves and three antitumor parameters (GI50, TGI, and LC50) by regression. GraphPad Prism 7.0 Software was used to represent the corresponding graphs.

Colon subpanel [4] = assay: NCI-60 one-dose screen, colon subpanel; assay type: cell-based, human; conditions: 10 µM, 48 h
Protocol: as §1, §2

Melanoma subpanel [5] = assay: NCI-60 five-dose assay, melanoma subpanel; assay type: cell-based; conditions: Homo sapiens, 48 h, read-out: Mean GI50 Melanoma
Protocol: (§3) All the compounds were selected for further testing since they fulfilled the set NCI one‐dose screening parameters for threshold inhibition. They were tested at five different concentrations (0.01, 0.1, 1, 10, and 100 μM) for 48 h against the same cell line panel and the dose–response curves along with three response parameters (50% growth inhibitory concentration [GI50], the 50% lethal concentration [LC50], and the total growth inhibition [TGI]) were calculated for every cancer cell line. The full reported data and corresponding graphs are compiled in Supporting Information S1. Average values of GI50, TGI, and LC50 values of all the reported selenoesters in all the subpanels are represented in Figure 4.
as §2

Prostate subpanel [6] = assay: NCI-60 one-dose screen, prostate subpanel; assay type: cell-based, human; conditions: 10 µM, 48 h
Protocol: as §1, §2

Breast subpanel [7] = assay: NCI-60 one-dose screen, breast subpanel; assay type: cell-based, human; conditions: 10 µM, 48 h
Protocol: as §1, §2

[8] = system: OVCAR‐5 ovarian cancer cells; assay: NCI-60 five-dose assay, OVCAR-5; assay type: cell-based, human; conditions: 48 h
Protocol: as §3, §2

Leukemia subpanel [9] = assay: NCI-60 five-dose assay, leukemia subpanel; assay type: cell-based; conditions: Homo sapiens, 48 h
Protocol: as §3, §2

L. major promastigotes [10] = assay: Leishmanicidal activity against promastigotes (MTT), L. major; assay type: cell-based, Leishmania major; conditions: Leishmania major, 48 h, mean ± SD, read-out: L. major IC50
Protocol: (§4) The synthesized compounds were tested for their antileishmanial activity against promastigotes of L. major and L. infantum at four concentrations (1, 10, 50, and 100 µM) for 48 h using the 3‐(4,5‐dimethylthiazol‐2‐yl)‐2,5‐diphenyltetrazolium bromide (MTT) assay. In this evaluation, the activity was expressed in IC50 (concentration inhibiting the parasite growth by 50%). […] The CC50 was defined as the concentration of selenoesters that led to a reduction in the viability of the macrophages, such that only 50% of the cells survived when compared to the control group. This cell line, derived from the blood of a human with acute monocytic leukemia, was chosen as it has been widely reported that it resembles tissue macrophages to various extents as well as supports the infection by numerous Leishmania promastigotes. The selectivity indexes (SIs) were calculated as the ratio between toxicity on macrophages (THP‐1 cells)/antileishmanial activity. The data for standard control drugs (miltefosine and paromomycin) are included for comparison purposes.
(§5) The promastigotes of L. major (clone VI, MHOM/IL/80/Friendlin) and L. infantum (BCN‐150) were grown at 26°C under continuous shaking in M199 1× medium (Sigma, USA). This media was supplemented with 10% of heat‐inactivated fetal bovine serum (FBS) (Gibco, USA), 0.0005% (w/v) hemin, 0.1 mM adenine, 25 mM HEPES (pH 7.2), 0.0001% (w/v) biotin, and 100 UI/mL penicillin and […] streptomycin (Gibco, USA).
(§6) The antileishmanial activity of the reported selenoesters was determined using the MTT assay as previously described during the logarithmic growth phase of the tested promastigotes of L. major and L. infantum. Briefly, the Leishmania parasites were seeded into 96‐well flat‐bottom plates (3 × 10^5 parasites/100 µL) and treated with four different concentrations ranging between 1 and 100 µM of each selenoester at 26°C for 48 h. Afterwards, 20 µL of MTT (5 mg/mL in PBS) was added to each well and incubated for 4 h under the same conditions. Then, 80 µL/well of DMSO was added to dissolve the resultant formazan crystals. The absorbances were determined on a Multiskan EX photometric plate reader for microplates at 540 nm. Three independent experiments performed in triplicate were carried out for each compound, and OriginPro 8.5.1 Software was used to calculate the IC50 values by fitting the data to a dose–inhibition sigmoid curve.

hCA II = molecular target: T3, hCA II (Homo sapiens, UniProt P00918); assay: hCA II inhibition, stopped-flow CO2 hydration assay; assay type: biochemical; conditions: stopped flow technique, mean from three assays
T3 construct: made in house
Protocol: as §7

Ovarian subpanel [11] = assay: NCI-60 one-dose screen, ovarian subpanel; assay type: cell-based, human; conditions: 10 µM, 48 h
Protocol: as §1, §2

CNS subpanel [12] = assay: NCI-60 five-dose assay, CNS subpanel; assay type: cell-based; conditions: Homo sapiens, 48 h, read-out: Mean GI50 CNS
Protocol: as §3, §2

Breast subpanel [13] = assay: NCI-60 five-dose assay, breast subpanel; assay type: cell-based; conditions: Homo sapiens, 48 h, read-out: Mean GI50 Breast
Protocol: as §3, §2

Renal subpanel [14] = assay: NCI-60 one-dose screen, renal subpanel; assay type: cell-based, human; conditions: 10 µM, 48 h
Protocol: as §1, §2

hCA XII = molecular target: T4, hCA XII (Homo sapiens, UniProt O43570); assay: hCA XII inhibition, stopped-flow CO2 hydration assay; assay type: biochemical; conditions: stopped flow technique, mean from three assays
T4 construct: made in house
T4 sequence (O43570 25-354): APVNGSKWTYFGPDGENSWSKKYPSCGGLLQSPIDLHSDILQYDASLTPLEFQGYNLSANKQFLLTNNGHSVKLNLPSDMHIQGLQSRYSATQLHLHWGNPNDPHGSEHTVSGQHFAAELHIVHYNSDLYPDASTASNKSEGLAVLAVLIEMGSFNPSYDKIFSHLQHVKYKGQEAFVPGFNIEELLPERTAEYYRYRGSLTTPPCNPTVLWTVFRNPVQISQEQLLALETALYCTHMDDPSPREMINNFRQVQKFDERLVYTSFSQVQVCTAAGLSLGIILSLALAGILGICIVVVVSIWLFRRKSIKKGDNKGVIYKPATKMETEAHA
Protocol: as §7

Melanoma subpanel [15] = assay: NCI-60 one-dose screen, melanoma subpanel; assay type: cell-based, human; conditions: 10 µM, 48 h
Protocol: as §1, §2

[16] = system: L. infantum promastigotes; assay: Leishmanicidal activity against promastigotes (MTT), L. infantum; assay type: cell-based, Leishmania infantum; conditions: Leishmania infantum, 48 h, mean ± SD, read-out: L. infantum IC50
Protocol: as §4, §5, §6

Prostate subpanel [17] = assay: NCI-60 five-dose assay, prostate subpanel; assay type: cell-based, human; conditions: Homo sapiens, 48 h
Protocol: as §3, §2

Colon subpanel [18] = assay: NCI-60 five-dose assay, colon subpanel; assay type: cell-based; conditions: Homo sapiens, 48 h
Protocol: as §3, §2

Ovarian subpanel [19] = assay: NCI-60 five-dose assay, ovarian subpanel; assay type: cell-based; conditions: Homo sapiens, 48 h, read-out: Mean GI50 Ovarian
Protocol: as §3, §2

Leukemia subpanel [20] = assay: NCI-60 one-dose screen, leukemia subpanel; assay type: cell-based, human; conditions: 10 µM, 48 h
Protocol: as §1, §2

CNS subpanel [21] = assay: NCI-60 one-dose screen, CNS subpanel; assay type: cell-based, human; conditions: 10 µM, 48 h
Protocol: as §1, §2

[22] = system: NSCL (non‐small‐cell lung cancer) subpanel; assay: NCI-60 one-dose screen, NSCL subpanel; assay type: cell-based, human; conditions: 10 µM, 48 h
Protocol: as §1, §2

Renal subpanel [23] = assay: NCI-60 five-dose assay, renal subpanel; assay type: cell-based; conditions: Homo sapiens, 48 h, read-out: Mean GI50 Renal
Protocol: as §3, §2

[24] = system: NSCL (non‐small‐cell lung cancer) subpanel; assay: NCI-60 five-dose assay, NSCL subpanel; assay type: cell-based; conditions: Homo sapiens, 48 h, read-out: Mean GI50 NSCL
Protocol: as §3, §2

COc1cc2ncnc(Nc3ccc(F)c(Cl)c3)c2cc1OCCCN1CCOCC1 [gefitinib]
GI50 [1]: 3.2 µM

NC[C@@H]1O[C@H](O[C@H]2[C@@H](O)[C@H](O[C@@H]3[C@@H](O)[C@H](N)C[C@H](N)[C@H]3O[C@H]3O[C@H](CO)[C@@H](O)[C@H](O)[C@H]3N)O[C@@H]2CO)[C@H](N)[C@@H](O)[C@@H]1O [Paromomycin, paromomycin]
IC50 [2]: 18 ± 1 µM
IC50 (L. major promastigotes [3]): 71 ± 3.3 µM
CC50 (THP‐1 cells): 39 ± 13.7 µM

CCCCCCCCCCCCCCCCOP(=O)([O-])OCC[N+](C)(C)C [Miltefosine, miltefosine]
IC50 [2]: 31.9 ± 2.3 µM
IC50 (L. major promastigotes [3]): 66.6 ± 11.6 µM
CC50 (THP‐1 cells): 13.3 ± 2.8 µM

O=c1[nH]cc(F)c(=O)[nH]1 [5‐fluorouracil]
GI50 [1]: 18 µM

O=C1[O][Pt]2([NH][C@@H]3CCCC[C@H]3[NH]2)[O]C1=O [oxaliplatin]
GI50 [1]: 2.8 µM

N#Cc1ccc(NC(=O)C[Se]C(=O)c2ccco2)cc1C(F)(F)F [Compound 4, Se‐(2‐((4‐cyano‐3‐(trifluoromethyl)phenyl)amino)‐2‐oxoethyl)furan‐2‐carboselenoate]
Ki (hCA IX): 19 µM
Ki (hCA I): > 100 µM
behaviour in OVCAR‐5 (OVCAR‐5): cytotoxic activity
average growth cell value, Colon (Colon subpanel [4]): -19.82%
GI50 (Melanoma subpanel [5]): 1.44 µM
average growth cell value, Prostate (Prostate subpanel [6]): -28.10%
average growth cell value, Breast (Breast subpanel [7]): -25.05%
cytotoxicity against OVCAR‐5 [8]: remarkable cytotoxicity
GI50 (Leukemia subpanel [9]; read-out: Mean GI50 Leukemia): 1.87 µM
CC50 (Leukemia subpanel [9]; read-out: Mean LC50 Leukemia): > 100 µM
IC50 (L. major promastigotes [10]): 26.5 ± 3.69 µM
Ki (hCA II): 93.8 µM
average growth cell value, Ovarian (Ovarian subpanel [11]): -28.29%
GI50 (CNS subpanel [12]): 1.8 µM
GI50 (Breast subpanel [13]): 1.72 µM
average growth cell value, Renal (Renal subpanel [14]): -40.11%
Ki (hCA XII): 77.1 µM
average growth cell value, Melanoma (Melanoma subpanel [15]): -56.62%
IC50 [16]: 28.6 ± 2.4 µM
GI50 (Prostate subpanel [17]; read-out: Mean GI50 Prostate): 1.65 µM
CC50 (Prostate subpanel [17]; read-out: Mean LC50 Prostate): 53.2 µM
GI50 (Colon subpanel [18]; read-out: Mean GI50 Colon): 1.91 µM
CC50 (Colon subpanel [18]; read-out: Mean LC50 Colon): 27.6 µM
GI50 (Ovarian subpanel [19]): 1.94 µM
average growth cell value, Leukemia (Leukemia subpanel [20]): 5.71%
average growth cell value, CNS (CNS subpanel [21]): -60.59%
average growth cell value, NSCL [22]: -37.92%
GI50 (Renal subpanel [23]): 1.92 µM
GI50 [24]: 1.56 µM
